Measurements: patent US6906205B2, “Spiro and dispiro 1,2,4-trioxolane antimalarials” (Medicines for Malaria Venture MMV, priority 2002, dated 2005)
≈ marks a conversion by molar mass, not a printed value.

What was measured:
[1] = test system: P. falciparum K1 strain (Thailand resistant to chloroquine); assay: semiautomated microdilution assay, [3H]-hypoxanthine incorporation, K1 strain; assay type: cell-based, Plasmodium falciparum; conditions: K1 strain, 72 h incubation
How it was run: (§1)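 Compounds were tested against intraerythrocytic parasites taken from asynchronous stock cultures, using semiautomated microdilution. IC50 values were estimated by logit regression analysis.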

[2] = test system: P. falciparum NF54 strain (sensitive to standard antimalarials); assay: semiautomated microdilution assay, [3H]-hypoxanthine incorporation, NF54 strain; assay type: cell-based, Plasmodium falciparum; conditions: NF54 strain, 72 h incubation
How it was run: as §1

[3] = test system: ANKA strain of P. berghei; assay: single dose STI in vivo screen in infected mice; set-up: species or system Plasmodium berghei; conditions: for Activity (%) po / Activity (%) sc / Activity (%) SSVpo: percent reduction in parasitemia day 3 post-infection, mice; for Activity (%) po / Survival (days) po: single 10 mg/kg po in 3% ethanol and 7% Tween 80; for Activity (%) sc / Survival (days) sc: single 10 mg/kg sc in 3% ethanol and 7% Tween 80; for Activity (%) SSVpo: single po dose in standard suspending vehicle (SSV); for Survival (days) po / Survival (days) sc / Survival (days) SSVpo: untreated control 5.6 ± 0.3; for Survival (days) SSVpo: single po dose in SSV
How it was run: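 Groups of 3-5 Moro SPF or NMRI mice infected with the ANKA strain of P. berghei received a single dose of trioxolane on day one post-infection. The compound was given in 3% ethanol and 7% Tween 80 or in SSV (0.5% w/v CMC, 0.5% v/v benzyl alcohol, 0.4% v/v Tween 80, 0.9% w/v sodium chloride in water). Antimalarial activity was scored as percent reduction in parasitemia on day three and as survival time versus untreated controls. Survival to day 30 counted as cure.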

SMILES | IC50 (ng/ml) K1 [1] [ng/mL] | IC50 (ng/ml) NF54 [2] [ng/mL] | Activity (%) po [3] [%] | Activity (%) sc [3] [%] | Activity (%) SSVpo [3] [%] | Survival (days) po [3] [days] | Survival (days) sc [3] [days] | Survival (days) SSVpo [3] [days]
S=C(Nc1ccccc1)N1CCC2(CC1)OOC1(O2)C2CC3CC(C2)CC1C3 (stereo not drawn) [OZ144] | 1.4 (≈ 0.0035 µM) | 2.1 (≈ 0.00524 µM) | 99.45 | 99.94 | 92 | 7.3 | 16.7 | 7.3
O=C(OC1CCC2(CC1)OOC1(O2)C2CC3CC(C2)CC1C3)n1ccnc1 (stereo not drawn) [OZ147] | 1.1 (≈ 0.00294 µM) | 1.8 (≈ 0.00481 µM) | 85 | 99.89 | 71 | 8.0 | 19.7 | 8.0
O=C1OC2(CCC3(CC2)OOC2(O3)C3CC4CC(C3)CC2C4)c2ccccc21 (stereo not drawn) [OZ149] | 8.0 (≈ 0.0209 µM) | 8.8 (≈ 0.023 µM) | 64 | 87 | 3 | 7.7 | 14.3 | 6.0
O=C(NCCO)[C@H]1CC[C@]2(CC1)OOC1(O2)C2CC3CC(C2)CC1C3 (stereo partly drawn) [OZ155] | 12 (≈ 0.0341 µM) | > 10 | 53 | 73 | 53 | 6.3 | 8.3 | 7.0
C(CNC1CCC2(CC1)OOC1(O2)C2CC3CC(C2)CC1C3)CN1CCOCC1 (stereo not drawn) [OZ161] | 0.40 (≈ 0.000984 µM) | 0.50 (≈ 0.00123 µM) | 59 | 99.96 | 46 | 7.0 | 12.7 | 6.7
O=C(O)c1ccc([C@H]2CC[C@]3(CC2)OOC2(O3)C3CC4CC(C3)CC2C4)cc1 (stereo partly drawn) [OZ165] | 39 (≈ 0.101 µM) | > 10 | 18 | 9 | 3 | 6.3 | 5.7 | 6.0
CCOC(=O)c1ccc(OC[C@H]2CC[C@]3(CC2)OOC2(O3)C3CC4CC(C3)CC2C4)cc1 (stereo partly drawn) [OZ166] | 28 (≈ 0.0633 µM) | > 10 | 11 | 4 | 0 | 6.7 | 5.7 | 6.3
O=C1c2ccccc2C(=O)N1C[C@H]1CC[C@@]2(CC1)OOC1(O2)C2CC3CC(C2)CC1C3 (stereo partly drawn) [OZ167] | 6.7 (≈ 0.0158 µM) | > 10 | 0 | 97 | 6 | 6.0 | 7.3 | 6.0
CC1(C)CC(NC2CCC3(CC2)OOC2(O3)C3CC4CC(C3)CC2C4)CC(C)(C)N1 (stereo not drawn) [OZ171] | 1.3 (≈ 0.00311 µM) | 1.4 (≈ 0.00334 µM) | 98 | 99.94 | 85 | 9.0 | 9.7 | 7.0
